{
  "source": "patent US8383639B2",
  "about": "“HIV integrase inhibitors” (priority 2009, dated 2013)",
  "data": [
    {"test_system": "recombinant NL-Rluc virus", "experiment": "Inhibition of HIV replication (NL-RLuc pseudotype virus, luciferase)", "assay_type": "cell-based", "settings": "Human immunodeficiency virus 1, read-out: Activity (EC50)", "units": {"EC50": "nM"}, "values": [
      {"smiles": "CC1(C)OCCn2c1nc(-c1ncc(Cc3ccc(F)cc3)[nH]1)c(O)c2=O", "note": "[Example 1, 2-(5-(4-Fluorobenzyl)-1H-imidazol-2-yl)-3-hydroxy-9,9-dimethyl-6,7-dihydropyrimido[2,1-c][1,4]oxazin-4(9H)-one]", "EC50": 7},
      {"smiles": "Cn1c(Cc2ccc(F)cc2)cnc1-c1nc2n(c(=O)c1O)CCOC2(C)C", "note": "[Example 2, 2-(5-(4-Fluorobenzyl)-1-methyl-1H-imidazol-2-yl)-3-hydroxy-9,9-dimethyl-6,7-dihydropyrimido[2,1-c][1,4]oxazin-4(9H)-one]", "EC50": 10},
      {"smiles": "CC1(C)OCCn2c1nc(-c1cn(Cc3ccc(F)cc3)cn1)c(O)c2=O", "note": "[Example 3, 2-(1-(4-Fluorobenzyl)-1H-imidazol-4-yl)-3-hydroxy-9,9-dimethyl-6,7-dihydropyrimido[2,1-c][1,4]oxazin-4(9H)-one]", "EC50": 5},
      {"smiles": "CC1(C)OCCn2c1nc(-c1nnc(Cc3ccc(F)cc3)[nH]1)c(O)c2=O", "note": "[Example 4, 2-(5-(4-Fluorobenzyl)-4H-1,2,4-triazol-3-yl)-3-hydroxy-9,9-dimethyl-6,7-dihydropyrimido[2,1-c][1,4]oxazin-4(9H)-one]", "EC50": 51},
      {"smiles": "CC1(C)OCCn2c1nc(-c1ncn(Cc3ccc(F)cc3)n1)c(O)c2=O", "note": "[Example 5, 2-(1-(4-Fluorobenzyl)-1H-1,2,4-triazol-3-yl)-3-hydroxy-9,9-dimethyl-6,7-dihydropyrimido[2,1-c][1,4]oxazin-4(9H)-one]", "EC50": 7},
      {"smiles": "Cn1c(Cc2ccc(F)cc2)nnc1-c1nc2n(c(=O)c1O)CCOC2(C)C", "note": "[Example 6, 2-(5-(4-Fluorobenzyl)-4-methyl-4H-1,2,4-triazol-3-yl)-3-hydroxy-9,9-dimethyl-6,7-dihydropyrimido[2,1-c][1,4]oxazin-4(9H)-one]", "EC50": 141},
      {"smiles": "CCOc1nc(-c2nc(Cc3ccc(F)cc3)no2)c(O)c(=O)n1C", "note": "[Example 7, 2-Ethoxy-6-(3-(4-fluorobenzyl)-1,2,4-oxadiazol-5-yl)-5-hydroxy-3-methylpyrimidin-4(3H)-one]", "EC50": 31000},
      {"smiles": "Cn1c(C2CCCC2)nc(-c2nc(Cc3ccc(F)cc3)no2)c(O)c1=O", "note": "[Example 9, 2-Cyclopentyl-6-(3-(4-fluorobenzyl)-1,2,4-oxadiazol-5-yl)-5-hydroxy-3-methylpyrimidin-4(3H)-one]", "EC50": 22000},
      {"smiles": "CC1(C)OCCn2c1nc(-c1ncc(Cc3ccc(F)cc3)s1)c(O)c2=O", "note": "[Example 11, 2-(5-(4-Fluorobenzyl)thiazol-2-yl)-3-hydroxy-9,9-dimethyl-6,7-dihydropyrimido[2,1-c][1,4]oxazin-4(9H)-one]", "EC50": 14},
      {"smiles": "CC1(C)OCCn2c1nc(-c1nnc(Cc3ccc(F)cc3)o1)c(O)c2=O", "note": "[Example 12, 2-(5-(4-Fluorobenzyl)-1,3,4-oxadiazol-2-yl)-3-hydroxy-9,9-dimethyl-6,7-dihydropyrimido[2,1-c][1,4]oxazin-4(9H)-one]", "EC50": 8}
    ]}
  ]
}
